Assay results from ChEMBL document CHEMBL1121892, “5-Tetrazolecarboxamides and their salts: new orally active antiallergy agents” (1981).
The source made the active and inactive calls. No cut-off for these calls is given here.

Assays:
[1] = test system: Rattus norvegicus; assay: Inhibition of rat passive cutaneous anaphylaxis following i.p. administration.; assay type: functional; details: ip
[2] = test system: Rattus norvegicus; assay: Inhibition of rat passive cutaneous anaphylaxis following p.o. administration.; details: po
[3] = test system: Rattus norvegicus; assay: Inhibition of rat passive cutaneous anaphylaxis following p.o. administration; Not active.

Structure (SMILES)	ED50 [1]	ED50 [2]	ED50 [3]
CN1CCN(c2cccc(NC(=O)c3nn[nH]n3)c2C#N)CC1	0.02 mg/kg	0.2 mg/kg	–
NC(=O)c1c(NC(=O)c2nnn[n-]2)cccc1N1CCCCC1.[Na+]	0.8 mg/kg	46 mg/kg	–
N#Cc1c(NC(=O)c2nnn[n-]2)cccc1N1CCCCC1.[Na+]	0.4 mg/kg	7 mg/kg	–
N#Cc1cc(NC(=O)c2nnn[n-]2)cc(NC(=O)c2nnn[n-]2)c1.[Na+].[Na+]	0.04 mg/kg	1 mg/kg	–
NC(=O)c1c(NC(=O)c2nnn[n-]2)cccc1N1CCOCC1.[Na+]	0.2 mg/kg	–	–
NC(=O)c1cc(NC(=O)c2nnn[n-]2)cc(NC(=O)c2nnn[n-]2)c1.[Na+].[Na+]	0.02 mg/kg	> 10 mg/kg	–
O=C(Nc1cccc(NC(=O)c2nnn[n-]2)n1)c1nnn[n-]1.[Na+].[Na+]	0.02 mg/kg	0.1 mg/kg	–
CCOC(=O)C(=O)Nc1cc(C#N)cc(NC(=O)c2nn[nH]n2)c1	0.2 mg/kg	–	–
CN(C)c1cccc(NC(=O)c2nnn[n-]2)c1C(N)=O.[Na+]	0.9 mg/kg	34 mg/kg	–
COc1cccc(NC(=O)c2nn[nH]n2)c1C(N)=O	0.1 mg/kg	0.2 mg/kg	–
N#Cc1c(NC(=O)c2nn[nH]n2)cccc1N1CCOCC1	0.5 mg/kg	10 mg/kg	–
O=C(Nc1cc(C(F)(F)F)cc(NC(=O)c2nnn[n-]2)c1Cl)c1nnn[n-]1.[Na+].[Na+]	1.6 mg/kg	–	–
O=C(Nc1ccccn1)c1nnn[n-]1.[Na+]	0.31 mg/kg	0.68 mg/kg	–
CN(C)c1cccc(NC(=O)c2nnn[n-]2)c1C#N.[Na+]	2 mg/kg	1.7 mg/kg	–
O=C(Nc1cc(Cl)cc(NC(=O)c2nnn[n-]2)n1)c1nnn[n-]1.[Na+].[Na+]	0.2 mg/kg	2 mg/kg	–
O=C([O-])c1cc(=O)c2c(OCC(O)COc3cccc4oc(C(=O)[O-])cc(=O)c34)cccc2o1.[Na+].[Na+] [CROMOLYN SODIUM]	8 mg/kg	–	inactive
CN1CCN(c2cccc(NC(=O)c3nn[nH]n3)c2C(N)=O)CC1	0.01 mg/kg	2.3 mg/kg	–
N#Cc1ccccc1NC(=O)c1nnn[n-]1.[Na+]	0.5 mg/kg	10 mg/kg	–
N#Cc1cc(NC(=O)c2nnn[n-]2)c(Cl)c(NC(=O)c2nnn[n-]2)c1.[Na+].[Na+]	0.3 mg/kg	–	–
CCNc1cccc(NC(=O)c2nnn[n-]2)c1C#N.[Na+]	1.1 mg/kg	2.6 mg/kg	–
